# Experimental data published in patent US8664257B2, “Oxygen-substituted 3-heteroaroylamino-propionic acid derivatives and their use as pharmaceuticals” (Sanofi, priority 2010, dated 2014).
# Molecular target: T1, Recombinant human cathepsin A (Homo sapiens, UniProt P10619)
# T1 construct: Recombinant human cathepsin A (residues 29-480, with a C-terminal 10-His tag); 10-His (C); purchased R&D Systems 1049-SE
# T1 sequence (P10619 29-312 limits assumed): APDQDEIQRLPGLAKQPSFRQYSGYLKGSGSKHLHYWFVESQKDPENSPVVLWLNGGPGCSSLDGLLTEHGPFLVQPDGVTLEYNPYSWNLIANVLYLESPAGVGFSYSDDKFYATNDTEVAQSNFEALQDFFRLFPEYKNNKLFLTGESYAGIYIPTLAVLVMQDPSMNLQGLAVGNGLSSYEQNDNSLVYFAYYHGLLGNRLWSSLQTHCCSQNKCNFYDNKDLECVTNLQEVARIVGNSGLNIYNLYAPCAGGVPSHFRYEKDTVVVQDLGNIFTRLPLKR
# T1 sequence (P10619 327-480 limits assumed): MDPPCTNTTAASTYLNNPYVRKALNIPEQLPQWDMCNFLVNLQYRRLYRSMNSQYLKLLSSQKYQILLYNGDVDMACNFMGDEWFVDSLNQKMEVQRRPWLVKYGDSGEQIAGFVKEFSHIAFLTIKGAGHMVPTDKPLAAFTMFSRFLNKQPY
# Experiment: Cathepsin A inhibitory activity
# Type: biochemical
# Conditions: read-out: Activity (2): Cathepsin A inhibitory activity, IC50 class
# Procedure, shortened: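 Human cathepsin A (res. 29-480, C-His10) pre-activated with cathepsin L (MES pH 6.0, DTT, 15 min, 37 °C; quenched with 10 μM E-64). Enzyme (833 ng/ml) preincubated 15 min RT with compound in MES pH 5.5/DTT, then 2 μM Bodipy FL-bradykinin for 15 min RT. Capillary electrophoresis product/substrate peak areas; IC50 from % inhibition.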
row,Structure (SMILES),IC50 [nM]
1,O=C(O)CC(NC(=O)c1cc(O)n(-c2cccc(F)c2)n1)c1cccc(Cl)c1 (centres unmarked) [Example 301],100 to 1000
2,O=C(O)C[C@H](NC(=O)c1cc(O)n(-c2cccc(F)c2)n1)c1ccccc1Br [Example 302],100 to 1000
3,N#Cc1cccc([C@H](CC(=O)O)NC(=O)c2cc(O)n(-c3cccc(F)c3)n2)c1 [Example 303],1000 to 30000
4,O=C(O)CC(NC(=O)c1cc(O)n(-c2cccc(F)c2)n1)c1cccc(C(F)(F)F)c1 (centres unmarked) [Example 304],100 to 1000
5,N#Cc1ccc([C@H](CC(=O)O)NC(=O)c2cc(O)n(-c3cccc(F)c3)n2)cc1 [Example 305],100 to 1000
6,COc1ccc(C(CC(=O)O)NC(=O)c2cc(O)n(-c3cccc(F)c3)n2)c(OC)c1 (centres unmarked) [Example 306],100 to 1000
7,COc1ccccc1[C@H](CC(=O)O)NC(=O)c1cc(O)n(-c2cccc(F)c2)n1 [Example 307],100 to 1000
8,O=C(O)CC(NC(=O)c1cc(O)n(-c2cccc(F)c2)n1)c1ccccc1F (centres unmarked) [Example 308],100 to 1000
9,COc1ccc(Cl)cc1C(CC(=O)O)NC(=O)c1cc(O)n(-c2cccc(F)c2)n1 (centres unmarked) [Example 309],100 to 1000
10,COc1ccc(C(CC(=O)O)NC(=O)c2cc(O)n(-c3cccc(F)c3)n2)c(Cl)c1 (centres unmarked) [Example 310],100 to 1000
11,O=C(O)C[C@H](NC(=O)c1cc(O)n(-c2cccc(F)c2)n1)c1ccc(F)cc1 [Example 311],100 to 1000
12,O=C(O)C[C@H](NC(=O)c1cc(O)n(-c2cccc(F)c2)n1)c1cccc(F)c1 [Example 312],100 to 1000
13,O=C(O)C[C@H](NC(=O)c1cc(O)n(-c2cccc(F)c2)n1)c1ccc(C(F)(F)F)cc1 [Example 313],1000 to 30000
14,O=C(O)CC(NC(=O)c1cc(O)n(-c2cccc(F)c2)n1)c1cccc(Cl)c1Cl (centres unmarked) [Example 314],< 100
15,O=C(O)CC(NC(=O)c1cc(O)n(-c2cccc(F)c2)n1)c1ccc(OC(F)(F)F)cc1 (centres unmarked) [Example 315],100 to 1000
16,COc1ccccc1[C@@H](NC(=O)c1cc(O)n(-c2cccc(F)c2)n1)[C@@H](O)C(=O)O [Example 316],1000 to 30000
17,Cc1cccc([C@H](CC(=O)O)NC(=O)c2cc(O)n(-c3cccc(F)c3)n2)c1 [Example 317],100 to 1000
18,O=C(O)C[C@H](NC(=O)c1cc(O)n(-c2cccc(F)c2)n1)c1cccc(C(F)(F)F)c1 [Example 318],100 to 1000

row,Structure (SMILES),IC50 [nM]
1,O=C(O)CC(NC(=O)c1cc(O)n(-c2cccc(F)c2)n1)c1ccc(-c2cccc(F)c2)cc1 (centres unmarked) [Example 319],100 to 1000
2,O=C(O)CC(NC(=O)c1cc(O)n(-c2cccc(F)c2)n1)c1ccc(Cl)cc1F (centres unmarked) [Example 320],100 to 1000
3,Cc1ccc(C)c(C(CC(=O)O)NC(=O)c2cc(O)n(-c3cccc(F)c3)n2)c1 (centres unmarked) [Example 321],100 to 1000
4,O=C(O)CC(NC(=O)c1cc(O)n(-c2cccc(F)c2)n1)c1cccc(Cl)c1F (centres unmarked) [Example 322],100 to 1000
5,O=C(O)CC(NC(=O)c1cc(O)n(-c2cccc(F)c2)n1)c1cccc(C(F)(F)F)c1Cl (centres unmarked) [Example 323],100 to 1000
6,CCc1ccc(C(CC(=O)O)NC(=O)c2cc(O)n(-c3cccc(F)c3)n2)cc1 (centres unmarked) [Example 324],100 to 1000
7,Cc1ccc(C(CC(=O)O)NC(=O)c2cc(O)n(-c3cccc(F)c3)n2)c(C)c1 (centres unmarked) [Example 325],100 to 1000
8,Cc1cc(F)ccc1C(CC(=O)O)NC(=O)c1cc(O)n(-c2cccc(F)c2)n1 (centres unmarked) [Example 326],100 to 1000
9,O=C(O)CC(NC(=O)c1cc(O)n(-c2cccc(F)c2)n1)c1ccc(-c2ccccc2)cc1 (centres unmarked) [Example 327],100 to 1000
10,O=C(O)CC(NC(=O)c1cc(O)n(-c2cccc(F)c2)n1)c1ccc(Cl)c(Cl)c1 (centres unmarked) [Example 328],100 to 1000
11,O=C(O)C[C@H](NC(=O)c1cc(O)n(-c2cccc(F)c2)n1)c1ccccc1C(F)(F)F [Example 329],100 to 1000
12,O=C(O)CC(NC(=O)c1cc(O)n(-c2cccc(F)c2)n1)c1ccc(Oc2ccccc2)cc1 (centres unmarked) [Example 330],100 to 1000
13,O=C(O)C[C@H](NC(=O)c1cc(O)n(-c2cccc(F)c2)n1)c1ccc(Cl)cc1 [Example 331],100 to 1000
14,O=C(O)C[C@H](NC(=O)c1cc(O)n(-c2cccc(F)c2)n1)c1ccc(Cl)cc1Cl [Example 332],100 to 1000
15,O=C(O)CC(NC(=O)c1cc(O)n(-c2cccc(F)c2)n1)c1ccc(-c2ccc(F)cc2)cc1 (centres unmarked) [Example 333],1000 to 30000
16,O=C(O)C[C@H](NC(=O)c1cc(O)n(-c2cccc(F)c2)n1)c1cccnc1 [Example 334],100 to 1000
17,COc1ccc([C@H](CC(=O)O)NC(=O)c2cc(O)n(-c3cccc(F)c3)n2)cn1 [Example 335],100 to 1000

# Further lines, results first:
row,IC50 [nM],Structure (SMILES)
1,100 to 1000,O=C(O)CC(NC(=O)c1cc(O)n(-c2ccc(F)cc2)n1)c1cccc2c1OCO2 (centres unmarked) [Example 336]
2,100 to 1000,COc1ccc(C(CC(=O)O)NC(=O)c2cc(O)n(-c3ccc(F)cc3)n2)c(C)c1 (centres unmarked) [Example 337]
3,100 to 1000,O=C(O)CC(NC(=O)c1cc(O)n(-c2ccc(F)cc2)n1)c1cccc(Cl)c1 (centres unmarked) [Example 338]
4,100 to 1000,O=C(O)C[C@H](NC(=O)c1cc(O)n(-c2ccc(F)cc2)n1)c1ccccc1Br [Example 339]
5,1000 to 30000,N#Cc1cccc([C@H](CC(=O)O)NC(=O)c2cc(O)n(-c3ccc(F)cc3)n2)c1 [Example 340]
6,100 to 1000,N#Cc1ccc([C@H](CC(=O)O)NC(=O)c2cc(O)n(-c3ccc(F)cc3)n2)cc1 [Example 341]
7,100 to 1000,COc1ccccc1[C@H](CC(=O)O)NC(=O)c1cc(O)n(-c2ccc(F)cc2)n1 [Example 342]
8,1000 to 30000,O=C(O)CC(NC(=O)c1cc(O)n(-c2ccc(F)cc2)n1)c1ccccc1F (centres unmarked) [Example 343]
9,100 to 1000,COc1ccc(Cl)cc1C(CC(=O)O)NC(=O)c1cc(O)n(-c2ccc(F)cc2)n1 (centres unmarked) [Example 344]
10,100 to 1000,COc1ccc(C(CC(=O)O)NC(=O)c2cc(O)n(-c3ccc(F)cc3)n2)c(Cl)c1 (centres unmarked) [Example 345]
11,1000 to 30000,O=C(O)C[C@H](NC(=O)c1cc(O)n(-c2ccc(F)cc2)n1)c1ccc(F)cc1 [Example 346]
12,100 to 1000,O=C(O)C[C@H](NC(=O)c1cc(O)n(-c2ccc(F)cc2)n1)c1cccc(Cl)c1Cl [Example 347]
13,1000 to 30000,COc1cccc([C@H](CC(=O)O)NC(=O)c2cc(O)n(-c3ccc(F)cc3)n2)c1 [Example 348]
14,100 to 1000,O=C(O)C[C@H](NC(=O)c1cc(O)n(-c2ccc(F)cc2)n1)c1cccc(F)c1 [Example 349]
15,100 to 1000,O=C(O)C[C@H](NC(=O)c1cc(O)n(-c2ccc(F)cc2)n1)c1cccc(Cl)c1 [Example 350]
16,1000 to 30000,O=C(O)C[C@H](NC(=O)c1cc(O)n(-c2ccc(F)cc2)n1)c1ccc(C(F)(F)F)cc1 [Example 351]
17,100 to 1000,O=C(O)CC(NC(=O)c1cc(O)n(-c2ccc(F)cc2)n1)c1cccc(Cl)c1Cl (centres unmarked) [Example 352]
18,100 to 1000,COc1cccc([C@H](CC(=O)O)NC(=O)c2cc(O)n(-c3ccc(F)cc3)n2)c1OC [Example 353]

row,IC50 [nM],Structure (SMILES)
1,100 to 1000,Cc1cccc([C@H](CC(=O)O)NC(=O)c2cc(O)n(-c3ccc(F)cc3)n2)c1 [Example 354]
2,100 to 1000,O=C(O)C[C@H](NC(=O)c1cc(O)n(-c2ccc(F)cc2)n1)c1cccc(C(F)(F)F)c1 [Example 355]
3,100 to 1000,O=C(O)CC(NC(=O)c1cc(O)n(-c2ccc(F)cc2)n1)c1ccc(-c2cccc(F)c2)cc1 (centres unmarked) [Example 356]
4,100 to 1000,O=C(O)CC(NC(=O)c1cc(O)n(-c2ccc(F)cc2)n1)c1ccc(Cl)cc1F (centres unmarked) [Example 357]
5,100 to 1000,Cc1cccc(C(CC(=O)O)NC(=O)c2cc(O)n(-c3ccc(F)cc3)n2)c1C (centres unmarked) [Example 358]
6,1000 to 30000,Cc1ccc(C)c(C(CC(=O)O)NC(=O)c2cc(O)n(-c3ccc(F)cc3)n2)c1 (centres unmarked) [Example 359]
7,100 to 1000,O=C(O)CC(NC(=O)c1cc(O)n(-c2ccc(F)cc2)n1)c1cccc(C(F)(F)F)c1F (centres unmarked) [Example 360]
8,100 to 1000,O=C(O)CC(NC(=O)c1cc(O)n(-c2ccc(F)cc2)n1)c1cccc(Cl)c1F (centres unmarked) [Example 361]
9,100 to 1000,O=C(O)CC(NC(=O)c1cc(O)n(-c2ccc(F)cc2)n1)c1cccc(C(F)(F)F)c1Cl (centres unmarked) [Example 362]
10,100 to 1000,CCc1ccc(C(CC(=O)O)NC(=O)c2cc(O)n(-c3ccc(F)cc3)n2)cc1 (centres unmarked) [Example 363]
11,100 to 1000,Cc1cc(F)ccc1C(CC(=O)O)NC(=O)c1cc(O)n(-c2ccc(F)cc2)n1 (centres unmarked) [Example 364]
12,100 to 1000,O=C(O)CC(NC(=O)c1cc(O)n(-c2ccc(F)cc2)n1)c1ccc(-c2ccccc2)cc1 (centres unmarked) [Example 365]
13,100 to 1000,O=C(O)C[C@H](NC(=O)c1cc(O)n(-c2ccc(F)cc2)n1)c1ccccc1F [Example 366]
14,100 to 1000,O=C(O)C[C@H](NC(=O)c1cc(O)n(-c2ccc(F)cc2)n1)c1ccccc1C(F)(F)F [Example 367]
15,100 to 1000,O=C(O)C[C@H](NC(=O)c1cc(O)n(-c2ccc(F)cc2)n1)c1c(F)cccc1F [Example 368]
16,100 to 1000,O=C(O)C[C@H](NC(=O)c1cc(O)n(-c2ccc(F)cc2)n1)c1ccc(Cl)cc1 [Example 369]
17,100 to 1000,O=C(O)C[C@H](NC(=O)c1cc(O)n(-c2ccc(F)cc2)n1)c1ccc(Cl)cc1Cl [Example 370]
18,100 to 1000,O=C(O)CC(NC(=O)c1cc(O)n(-c2ccc(F)cc2)n1)c1ccc(-c2ccc(F)cc2)cc1 (centres unmarked) [Example 371]
